pIC50: −log10 of the molar value. In brackets after ≈: the same amount, converted by molar mass.

For experiment [1], the system named is Enterococcus faecalis. The experiment is described as follows: Antibacterial activity against Enterococcus faecalis ATCC 29212 after 18 to 24 hrs by microdilution assay. The class given is functional.
The test system of experiment [2] is Staphylococcus aureus. The experiment is described as follows: Antibacterial activity against Staphylococcus aureus ATCC 25923 after 18 to 24 hrs by microdilution assay. It counts as functional.
The test system of experiment [3] is Staphylococcus aureus. Briefly: Antibacterial activity against hospital-acquired methicillin/ciprofloxacin/moxifloxacin resistant Staphylococcus aureus SA 481 after 18 to 24 hrs by microdilution assay. It counts as functional.
The target in experiment [4] is T1, D-alanine--D-alanine ligase (Enterococcus faecalis (strain ATCC 700802 / V583), UniProt Q47758).
T1 sequence (Q47758 whole entry): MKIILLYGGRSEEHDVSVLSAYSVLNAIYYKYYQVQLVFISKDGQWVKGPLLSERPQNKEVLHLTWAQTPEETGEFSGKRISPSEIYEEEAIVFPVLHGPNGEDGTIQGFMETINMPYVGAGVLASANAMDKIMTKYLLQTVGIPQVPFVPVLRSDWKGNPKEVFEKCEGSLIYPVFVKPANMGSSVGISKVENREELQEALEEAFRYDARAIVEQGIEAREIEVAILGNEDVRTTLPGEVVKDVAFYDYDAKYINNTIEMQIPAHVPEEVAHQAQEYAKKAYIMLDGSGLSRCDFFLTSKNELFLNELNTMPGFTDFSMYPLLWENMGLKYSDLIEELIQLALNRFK
Briefly: Inhibition of Enterococcus faecalis JH2-2 C-terminal 6His-tagged DdlB expressed in Escherichia coli LMG194 preincubated for 30 mins followed by substrate addition and measured after 20 mins by Biomol Green reagent assay.

Experiment [5] relates to Staphylococcus aureus. Briefly: Antibacterial activity against community-acquired methicillin and erythromycin resistant Staphylococcus aureus SA 325 after 18 to 24 hrs by microdilution assay. It counts as functional.
Experiment [6] concerns Enterococcus faecalis. The experiment is described as follows: Antibacterial activity against vancomycin-resistant Enterococcus faecalis BM 4390 after 18 to 24 hrs by microdilution assay. It counts as functional. In general terms: Dilution methods test growth across graded concentrations, often in twofold steps.
Experiment [7] concerns Enterococcus faecalis. The experiment is described as follows: Antibacterial activity against vancomycin-resistant Enterococcus faecalis BM 4575 clinical isolate after 18 to 24 hrs by microdilution assay. The class given is functional.
Experiment [8] relates to Staphylococcus aureus. The experiment is described as follows: Antibacterial activity against methicillin and vancomycin intermediate resistant Staphylococcus aureus MU50 after 18 to 24 hrs by microdilution assay. It counts as functional.
Experiment [9] relates to Staphylococcus aureus. Briefly: Antibacterial activity against methicillin and linezolid resistant Staphylococcus aureus NRS 119 clinical isolate after 18 to 24 hrs by microdilution assay. It counts as functional.
Experiment [10] has as its system Enterococcus faecalis. Briefly: Antibacterial activity against vancomycin-resistant Enterococcus faecalis JH2-2::C1 after 18 to 24 hrs by microdilution assay. The class given is functional.
For experiment [11], the system named is Staphylococcus aureus. Briefly: Antibacterial activity against hospital-acquired methicillin and vacomycin resistant Staphylococcus aureus VRS-1 after 18 to 24 hrs by microdilution assay. The class given is functional.

In general, MIC refers to the lowest concentration that inhibits growth of the organism. For `O=C(NNC(=O)c1ccccc1O)Nc1ccc(Cl)c(Cl)c1`, the minimal inhibitory concentration (MIC) in experiment [1] and in [2] was more than 100 µM each time.

As for `O=C(NNC(=S)Nc1ccccc1Cl)c1ccccc1`, the MIC in [1] is more than 400 µM; in experiment [2] it was more than 100 µM.

What is called pIC50 is the IC50 on a negative log10 scale, so that one unit is a factor of ten. Higher therefore signals a low IC50. Turning to `N#Cc1ccc(NC(=S)NNC(=O)c2ccccc2O)cc1`, the MIC was 100 µM (≈ 31.2 µg/mL) in experiment [1]; more than 100 µM in experiment [3]; more than 100 µM in experiment [5]; more than 100 µM in [6]; more than 100 µM in experiment [7]; more than 100 µM in experiment [8]. Besides, the MIC in experiment [9], in experiment [10], in experiment [2] and in experiment [11] was more than 100 µM throughout. This compound showed a pIC50 in experiment [4] of 6.29.

On to `O=C(NNC(=S)Nc1ccc(Cl)cc1Cl)c1ccccc1O`, for which the MIC turned out to be 50 µM (≈ 17.8 µg/mL) in [1]; 50 µM (≈ 17.8 µg/mL) in experiment [3]; 50 µM (≈ 17.8 µg/mL) in [5]; 25 µM (≈ 8.91 µg/mL) in [6]; 25 µM (≈ 8.91 µg/mL) in experiment [7]; 50 µM (≈ 17.8 µg/mL) in [8]. Also, the MIC came to 25 µM (≈ 8.91 µg/mL) in [9], 50 µM (≈ 17.8 µg/mL) in experiment [10], 50 µM (≈ 17.8 µg/mL) in experiment [2] and 25 µM (≈ 8.91 µg/mL) in experiment [11]. In experiment [4], this compound gave a pIC50 of 6.24.

Consider `CCCCCNC(=S)NNC(=O)c1ccccc1O`, for which the MIC was more than 400 µM in [1]; more than 100 µM in experiment [3]; more than 100 µM in experiment [5]; more than 100 µM in experiment [6]; more than 100 µM in [7]; more than 100 µM in experiment [8]. Further, the MIC in [9], in experiment [10], in [2] and in experiment [11] was more than 100 µM each time. In experiment [4], the negative-log IC50 (pIC50) is 6.03.

For `O=C(NNC(=S)Nc1ccc(Cl)c(Cl)c1)c1cccc(O)c1`, the MIC was more than 400 µM in experiment [1] and more than 100 µM in experiment [2].

On to `O=C(NNC(=S)Nc1cccc(Cl)c1)c1ccccc1`, for which the values for the MIC in experiment [1] and in experiment [2] were more than 400 µM and more than 100 µM, respectively.

As to `O=C(NNC(=S)Nc1ccc(Cl)cc1)c1ccccc1`, the values for the minimum inhibitory concentration (MIC) in experiment [1] and in experiment [2] were more than 400 µM and more than 100 µM, respectively.

For the compound `O=c1c2ccccc2ncn1NC(=S)Nc1ccccc1`, the minimal inhibitory concentration (MIC) in [1] was more than 400 µM; in experiment [2], more than 100 µM.

Turning to `O=C(NNC(=S)Nc1ccc(Cl)c(Cl)c1)c1ccc(I)cc1O`, the minimal inhibitory concentration (MIC) in experiment [1] is more than 400 µM; in experiment [3], more than 100 µM; in experiment [5], more than 100 µM; in [6] it was more than 100 µM; in [7], more than 100 µM; in [8], more than 100 µM. Further, the minimum inhibitory concentration (MIC) is more than 100 µM in experiment [9], more than 100 µM in experiment [10], 100 µM (≈ 48.2 µg/mL) in experiment [2] and more than 100 µM in experiment [11]. This compound also had a pIC50 in experiment [4] of 6.03.

As for `O=C(NNC(=S)Nc1cccc(I)c1)c1ccccc1O`, the MIC is more than 400 µM in experiment [1]; more than 100 µM in [3]; more than 100 µM in experiment [5]; more than 100 µM in experiment [6]; more than 100 µM in [7]; more than 100 µM in experiment [8]. Besides, the minimal inhibitory concentration (MIC) in experiment [9], in experiment [10], in [2] and in experiment [11] was more than 100 µM each time. The pIC50 in experiment [4] was 6.14.

Consider `O=C(NNC(=S)Nc1ccc(Cl)c(Cl)c1)c1ccccc1`, for which the MIC in experiment [1] and in [2] was more than 100 µM in each case.

Turning to `O=C(NNC(=S)Nc1ccc(F)cc1)c1ccccc1O`, the MIC was 200 µM (≈ 61.1 µg/mL) in experiment [1]; more than 100 µM in [3]; more than 100 µM in experiment [5]; more than 100 µM in [6]; more than 100 µM in experiment [7]; more than 100 µM in experiment [8]. Moreover, the minimal inhibitory concentration (MIC) in experiment [9], in [10], in [2] and in [11] was more than 100 µM throughout. In [4], this compound showed a pIC50 of 6.08.

On to `O=C(O)c1cn(C2CC2)c2cc(N3CCNCC3)c(F)cc2c1=O` [CIPROFLOXACIN], for which the MIC in experiment [3] was found to be 770 µM (≈ 255 µg/mL).

Take `O=C(NNC(=S)Nc1ccc(OC(F)(F)F)cc1)c1ccccc1O`: the MIC in experiment [1] was 50 µM (≈ 18.6 µg/mL); in experiment [3], more than 100 µM; in experiment [5], 100 µM (≈ 37.1 µg/mL); in experiment [6], more than 100 µM; in experiment [7] it was more than 100 µM; in experiment [8] it was more than 100 µM. The minimal inhibitory concentration (MIC) is 100 µM (≈ 37.1 µg/mL) in [9], 100 µM (≈ 37.1 µg/mL) in [10], 25 µM (≈ 9.28 µg/mL) in experiment [2] and more than 100 µM in experiment [11]. The compound further had a pIC50 in experiment [4] of 6.15.

For the compound `O=C(NNC(=S)Nc1ccc([N+](=O)[O-])cc1)c1ccc(O)cc1`, the minimal inhibitory concentration (MIC) in experiment [1] was more than 400 µM; in experiment [2] it was more than 100 µM.

Regarding `O=C(NNC(=S)Nc1cccc2ccccc12)c1ccccc1O`, the minimal inhibitory concentration (MIC) in [1] is more than 400 µM; in experiment [3], more than 100 µM; in experiment [5], more than 100 µM; in experiment [6], more than 100 µM; in experiment [7], more than 100 µM; in experiment [8] it was more than 100 µM. Further, the MIC in experiment [9], in experiment [10], in experiment [2] and in experiment [11] was more than 100 µM each time. Further, the pIC50 in experiment [4] is 6.28.

For the compound `O=C(NNC(=S)NCCCN1CCOCC1)c1ccccc1O`, the MIC in [1] was more than 400 µM; in [3] it was more than 100 µM; in experiment [5], more than 100 µM; in experiment [6], more than 100 µM; in [7], more than 100 µM; in experiment [8], more than 100 µM. For the same compound, the minimal inhibitory concentration (MIC) in experiment [9], in [10], in experiment [2] and in experiment [11] was more than 100 µM throughout.

As for `O=C(NNC(=S)Nc1cccnc1)c1ccccc1O`, the MIC in experiment [1] is 50 µM (≈ 14.4 µg/mL); in experiment [3] it was more than 100 µM; in [5], more than 100 µM; in experiment [6] it was more than 100 µM; in experiment [7] it was more than 100 µM; in [8] it was more than 100 µM. Moreover, the MIC in experiment [9] was more than 100 µM; in experiment [10], more than 100 µM; in experiment [2], 50 µM (≈ 14.4 µg/mL); in [11], more than 100 µM.

As to `O=C(NNC(=S)Nc1ccc(F)cc1)c1ccccc1`, the minimal inhibitory concentration (MIC) in [1] is more than 400 µM; in experiment [2], more than 100 µM.

For `CC(=O)NC[C@H]1CN(c2ccc(N3CCOCC3)c(F)c2)C(=O)O1` [LINEZOLID], the minimum inhibitory concentration (MIC) in experiment [8] turned out to be 3 µM (≈ 1.01 µg/mL); in experiment [9] it was 190 µM (≈ 64.1 µg/mL).

`O=C(NNC(=S)Nc1cccc(F)c1)c1ccccc1`: the MIC is more than 400 µM in experiment [1] and more than 100 µM in [2].

Take `CN[C@H](CC(C)C)C(=O)N[C@H]1C(=O)N[C@@H](CC(N)=O)C(=O)N[C@H]2C(=O)N[C@H]3C(=O)N[C@H](C(=O)N[C@H](C(=O)O)c4cc(O)cc(O)c4-c4cc3ccc4O)[C@H](O)c3ccc(c(Cl)c3)Oc3cc2cc(c3O[C@@H]2O[C@H](CO)[C@@H](O)[C@H](O)[C@H]2O[C@H]2C[C@](C)(N)[C@H](O)[C@H](C)O2)Oc2ccc(cc2Cl)[C@H]1O` [VANCOMYCIN]: the MIC in [6] is 700 µM (≈ 1010 µg/mL); in experiment [8], 5 µM (≈ 7.25 µg/mL); in [9], 0.7 µM (≈ 1.01 µg/mL); in [10], 350 µM (≈ 507 µg/mL); in experiment [11] it was more than 175 µM.

As for `O=C(NNC(=S)Nc1ccccc1F)c1ccccc1`, the values for the MIC in experiment [1] and in experiment [2] were more than 400 µM and more than 100 µM, respectively.

As to `O=C(NNC(=O)c1ccccc1)Nc1ccc(Cl)c(Cl)c1`, the MIC in [1] and in experiment [2] was more than 100 µM each time.

Take `O=C(NNC(=S)Nc1ccc(Cl)c(Cl)c1)c1ccc(O)cc1`: the minimum inhibitory concentration (MIC) is more than 400 µM in [1] and more than 100 µM in [2].

(Values after ChEMBL document CHEMBL4382202, “1-(2-Hydroxybenzoyl)-thiosemicarbazides are promising antimicrobial agents targeting d-alanine-d-alanine ligase in bacterio” (Eur J Med Chem, 2018).)
